{"source": "patent US9128081B2", "about": "“TDP-43-storing cell model” (TOKYO METROPOLITAN INSTITUTE OF MEDICAL SCIENCE, priority 2008, dated 2015)", "format_in_all_cases": "cell-based, human", "key": {"[1]": {"tested_on": "SH-SY5Y cells expressing NLS2-deficient mutant TDP-43", "assay": "Protease inhibitor treatment of NLS2-deficient mutant-expressing cells, confocal laser microscope", "details": "inhibitor 20 μM, 6 hours; for inclusion formation / expression pattern, anti-TARDBP staining: 37° C.", "experimental": "(§1) Each of the above-described various plasmid vectors (pcDNA3 or pEGFP system, 1 μg) was integrated into SH-SY5Y cell using FuGENE6 transfection reagent (Roche Diagnostics). FuGENE6 at 3-fold volume of the total plasmid amount was mixed with the plasmid, left to stand at room temperature for 15 minutes, and then mixed with the cell solution. The resultant was cultured for 2-3 days, and used for preparation of cell lysates or immunohistological staining.\n(§2) SH-SY5Y cells cultured on glass covers were mixed with each of the various expression vectors (1 μg) and added in the presence of FuGENE6. After two days of cultivation, cell immobilization or protease inhibitor treatment was carried out. In the protease inhibitor treatment, a final concentration of 20 μM of MG132 (proteasome inhibitor) or carbobenzoxy-leucyl-leucinal (zLL: calpain inhibitor) was added to the cell, and cultured at 37° C. for 6 hours. Thereafter, the cell was immobilized in a 4% paraformaldehyde solution. […] After washing with 50 mM Tris-HCl containing 0.05% Tween 20 and 150 mM NaCl (pH 7.5) (TBS-T), the cell was caused to react with a fluorescence-labeled secondary antibody at 37° C. for an hour. […] The resultant was sealed on a glass slide, and then analyzed with a confocal laser microscope (Carl Zeiss).\n(§3) The primary antibody and the fluorescence-labeled secondary antibody used were as follows. • Primary antibody: • anti-TARDBP (ProteinTech, 1:1000 dilution); • anti-pS409/410 (antibody (antibody that specifically binds to TDP-43 aggregates) obtained by using, as an antigen, a peptide in which Ser residues at positions 409 and 410 of TDP-43 are both phosphorylated, 1:500 dilution); • anti-ubiquitin (MAB1510, CHEMICON, 1:500 dilution) • Fluorescence-labeled secondary antibody: • FITC-labeled anti-rabbit IgG (anti-rabbit immunoglobulin, FITC-labeled, Product number: F9887, Sigma, 1:500 dilution); • rhodamine-labeled anti-mouse IgG (anti-mouse immunoglobulin, TRITC-labeled, Product number: T2402, Sigma, 1:500 dilution) […]"}, "[2]": {"tested_on": "SH-SY5Y cells expressing NLS1-deficient mutant TDP-43", "assay": "Protease inhibitor treatment of NLS1-deficient mutant-expressing cells, confocal laser microscope", "details": "inhibitor 20 μM, 6 hours; for inclusion formation, anti-pS409/410 staining: inclusion diameter about 10 μm", "experimental": "as §1, §2, §3"}, "[3]": {"tested_on": "SH-SY5Y cells expressing wild-type TDP-43", "assay": "Protease inhibitor treatment of wild-type TDP-43-expressing cells, confocal laser microscope", "details": "inhibitor 20 μM, 37° C., 6 hours", "experimental": "as §1\nas §2, with “Zeiss). […]” for “Zeiss).”"}, "[4]": {"tested_on": "SH-SY5Y cells expressing pcDNA3-TDP delta NLS1&2 (TDP delta NLS1&2)", "assay": "Suppression of formation of intracellular TDP-43 inclusions by low-molecular compounds (TDP delta NLS1&2)", "details": "enhanced concentration-dependently, 3 days after addition", "experimental": "(§4) The cell used was human neuroblast cell line SH-SY5Y, while pEGFP-TDP 162-414 (GFP-TDP 162-414) and pcDNA3-TDP delta NLS1&2 (TDP delta NLS1&2) which gave more significant formation of intracellular inclusions among various TDP-43 mutants were used to search for an inhibitor for the above-described inclusion formation.\n(§5) Gene transfection into SH-SY5Y cell was carried out according to the method described in “Cultivation of SH-SY5Y cell and integration of plasmid vector” above, where 1 μg of each of the various plasmids was transfected into the cell with three-fold volume of a transfection reagent (FuGENE6: 3 μl).\n(§6) Treatment with a candidate inhibitor took place two hours after gene transfection. […] The concentrations of methylene blue were determined to take the above concentrations by considering the concentration conditions that have no damage on cell proliferation. On the other hand, the concentrations of dimebon were determined by referring to a publication (Jun Wu et al., Molecular Neurodegeneration, 2008, vol. 3, p. 15), and the preparation method (suspension in sterile water) was carried out according to the instruction provided by the reagent supplier. […]\nFluorescence-Labeled Secondary Antibody: • Fluorescein isothiocyanate (FITC)-labeled anti-rabbit IgG (Sigma, 1:500 dilution) • Alexa-568-labeled anti-mouse IgG (1:500 dilution) […]"}, "[5]": {"tested_on": "SH-SY5Y cells expressing pEGFP-TDP 162-414 (GFP-TDP 162-414)", "assay": "Suppression of formation of intracellular TDP-43 inclusions by low-molecular compounds (GFP-TDP 162-414)", "details": "enhanced concentration-dependently, 3 days after addition", "experimental": "as §4, §5\nas §6, with “transfection. As candidate inhibitors, methylene blue and dimebon were examined.” for “transfection.”\nFluorescence-Labeled Secondary Antibody: • Alexa-568-labeled anti-mouse IgG (1:500 dilution) […]"}, "[6]": {"details": "methylene blue 0.05 μM, FIGS. 19 and 20"}}, "note": "Entries after “also recorded” stand apart in the source; their conditions may differ. Where a SMILES comes first, the peptide text is derived from it. The star is where a group is joined. Cbz = O=C(OCc1ccccc1)*", "data": [{"smiles": "CC(C)C[C@@H](C=O)NC(=O)[C@H](CC(C)C)NC(=O)[C@H](CC(C)C)NC(=O)OCc1ccccc1", "note": "[MG132] (Cbz-Leu-Leu-Leu-aldehyde)", "values": [{"measurement": "inclusion formation / expression pattern, anti-TARDBP staining", "setting": "[1]", "value": "inclusions were found in the nucleus"}, {"measurement": "inclusion formation, anti-pS409/410 and anti-ubiquitin staining", "setting": "[1]; inclusion diameter about 10 μm", "value": "emergence of intranuclear inclusions positive to both anti-pS409/410 and anti-ubiquitin"}, {"measurement": "inclusion formation, anti-TARDBP staining", "setting": "[2]; 37° C.", "value": "did not show significant difference from MG132-free cases; also recorded: cytoplasmic inclusions were not observed"}, {"measurement": "inclusion formation, anti-pS409/410 staining", "setting": "[2]", "value": "anti-pS409/410-positive cytoplasmic inclusions were observed"}, {"measurement": "inclusion formation, anti-TARDBP staining", "setting": "[3]", "value": "did not show significant difference from MG132-free cases"}]}, {"smiles": "Cc1ccc2c(c1)c1c(n2CCc2ccc(C)nc2)CCN(C)C1", "note": "[dimebon]", "values": [{"measurement": "inhibition effect on formation of intracellular TDP-43 inclusions", "setting": "[4]; dimebon 20 μM, FIGS. 21 and 22", "value": "inhibition effect of dimebon was also confirmed"}, {"measurement": "inhibition effect on formation of intracellular TDP-43 inclusions", "setting": "[5]; dimebon 20 μM, FIGS. 21 and 22", "value": "inhibition effect of dimebon was also confirmed"}]}, {"smiles": "CN(C)c1ccc2nc3ccc(=[N+](C)C)cc-3sc2c1", "note": "[methylene blue]", "values": [{"measurement": "inhibition effect on formation of intracellular TDP-43 inclusions", "setting": "[4]; [6]", "value": "inhibition effect of methylene blue was confirmed"}, {"measurement": "inhibition effect on formation of intracellular TDP-43 inclusions", "setting": "[5]; [6]", "value": "inhibition effect of methylene blue was confirmed"}]}, {"smiles": "CC(C)C[C@@H](C=O)NC(=O)[C@H](CC(C)C)NC(=O)OCc1ccccc1", "note": "[zLL, carbobenzoxy-leucyl-leucinal]", "values": [{"measurement": "inclusion formation / expression pattern, anti-TARDBP staining", "setting": "[1]", "value": "no particular change was found in the expression pattern"}, {"measurement": "inclusion formation, anti-pS409/410 staining", "setting": "[2]", "value": "no intracellular inclusion was observed"}]}]}
